Reference: patent US9615577B2, “Herbicidally active cyclic dione compounds, or derivatives therefor, substituted by a phenyl which has an alkynyl-containing substituent” (Syngenta Limited, priority 2012, dated 2017)

Key:
Assay type in all cases: in vivo
[1] = system: Digitaria sanguinalis (DIGSA); assay: Test 1B glasshouse assay for herbicidal activity, post-emergence; settings: 360 h; for pest or weed control at 30 g/ha: 30 g/ha application rate; for pest or weed control at 125 g/ha: 125 g/ha application rate
Outline: (§1)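 Pots of soil were sown and held one day for pre-emergence or about 12 days for post-emergence treatment, then sprayed with an aqueous solution containing 0.2% v/v X-77 adjuvant, prepared from a 50 g/liter IF50 formulation, at rate-dependent concentration. Visual damage scoring followed at 20 or 15 DAA respectively.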

Setaria faberi (SETFA) [2] = assay: as above; settings: 360 h; for pest or weed control at 30 g/ha: 30 g/ha application rate; for pest or weed control at 125 g/ha: 125 g/ha application rate
Outline: as §1

[3] = system: Glycine max (GLXMA, soybean); assay: Test 1B glasshouse assay for herbicidal activity, pre-emergence; settings: 480 h, 250 g/ha, 20 DAA, read-out: percentage phytotoxicity GLXMA
Experimental: (§2) Seeds of a variety of monocotyledonous and dicotyledonous test plants are sown in standard soil in pots. The plants are cultivated for one day (for pre-emergence) or for about 12 days (range=10-13 days) (for post-emergence) under controlled conditions in a glasshouse (warm climate species at 24/18° C., cool climate species at 20/16° C., both at day/night; 16 hours light; 65% humidity).
(§3) An “instant formulation”, known as the “IF50”, containing 50 g/liter (i.e. 5% w/v) of the “technical” (i.e. unformulated) active ingredient is prepared by dissolving the active ingredient in a mixture of organic solvents and emulsifier, details of which are provided in the Table below. This IF50 is then mixed with a small, variable amount of acetone to aid dissolution, before addition of a 0.2% v/v aqueous solution of the adjuvant X-77 (which is a mixture of alkyl aryl polyoxyethylene glycols and free fatty acids in isopropanol, CAS Registry number 11097-66-8), as the aqueous diluent, to form an aqueous spray solution which contains a predetermined concentration of the active ingredient (which varies depending on the application rate of the active ingredient to the plants) and 0.2% v/v of the adjuvant X-77. This aqueous spray solution is then sprayed onto the plants, after one day's cultivation (for pre-emergence) or after about 12 days' cultivation (for post-emergence).
(§4) The test plants are then grown on, in a glasshouse (greenhouse) under controlled conditions (at either 24/18° C. or 20/16° C. (day/night) as mentioned above; 16 hours light; 65% humidity) and are watered twice daily. Either 15 days after application of the herbicide (15 DAA) (for post-emergence), or 20 days after application of the herbicide (20 DAA) (for pre-emergence), the test plants are evaluated visually, and an assessed percentage phytotoxicity score is given for each herbicidal application on each plant species (where 100%=total damage to plant; 0%=no damage to plant).
Warm climate crop plants: Glycine max (GLXMA, soybean).

[4] = system: Brassica napus (BRSNN, rape); assay: Test 1B glasshouse assay for herbicidal activity, post-emergence; settings: 360 h; for plant injury at 30 g/ha: 30 g/ha application rate; for plant injury at 125 g/ha: 125 g/ha application rate
Outline: (§5)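 Plants grown in soil at 20/16° C day/night, 16 h light, 65% humidity; sprayed after 1 day (pre-emergence) or ~12 days (post-emergence) with formulated compound in 0.2% v/v X-77 adjuvant. Visual % phytotoxicity scored 20 DAA (pre) or 15 DAA (post).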

[5] = system: Triticum aestivum (TRZAW, winter wheat); assay: as above; settings: 360 h; for plant injury at 30 g/ha: 30 g/ha application rate; for plant injury at 125 g/ha: 125 g/ha application rate
Outline: as §5

[6] = system: Beta vulgaris (BEAVA, sugar beet); assay: as above; settings: 360 h; for plant injury at 30 g/ha: 30 g/ha application rate; for plant injury at 125 g/ha: 125 g/ha application rate
Outline: as §5

[7] = system: Brassica napus (BRSNN, rape); assay: Test 1B glasshouse assay for herbicidal activity, pre-emergence; settings: 480 h, 250 g/ha, 20 DAA, read-out: percentage phytotoxicity BRSNN
Experimental: as §2, §3, §4
(§6) Cool climate crop plants: Triticum aestivum (TRZAW, winter wheat), Brassica napus (BRSNN, rape, also called oilseed rape or rapeseed), Beta vulgaris (BEAVA, sugar beet).

[8] = system: Triticum aestivum (TRZAW, winter wheat); assay: as above; settings: 480 h, 250 g/ha, 20 DAA, read-out: percentage phytotoxicity TRZAW
Experimental: as §2, §3, §4, §6

[9] = system: Beta vulgaris (BEAVA, sugar beet); assay: as above; settings: 480 h, 250 g/ha, 20 DAA, read-out: percentage phytotoxicity BEAVA
Experimental: as §2, §3, §4, §6

[10] = system: Alopecurus myosuroides (ALOMY); assay: Test 1A glasshouse assay for herbicidal activity, post-emergence; settings: 312 h, evaluated after 13 days, read-out: percentage phytotoxicity ALOMY
Outline: (§7)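 Pre-em: spray 1 d after sowing; post-em: spray after 8 d cultivation. Formulation in acetone/water (50:50), 0.5% Tween 20. Glasshouse 24/16 °C d/n, 14 h light, 65% humidity. Readout: visual % damage at 13 d.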

[11] = system: Echinochloa crus-galli (ECHCG); assay: as above; settings: 312 h, evaluated after 13 days, read-out: percentage phytotoxicity ECHCG
Outline: as §7

Setaria faberi (SETFA) [12] = assay: as above; settings: 312 h, evaluated after 13 days, read-out: percentage phytotoxicity SETFA
Outline: as §7

[13] = system: Amaranthus retroflexus (AMARE); assay: as above; settings: 312 h, evaluated after 13 days, read-out: percentage phytotoxicity AMARE
Outline: as §7

[14] = system: Glycine max (GLXMA, soybean); assay: Test 1B glasshouse assay for herbicidal activity, post-emergence; settings: 360 h; for plant injury at 30 g/ha: 30 g/ha application rate; for plant injury at 125 g/ha: 125 g/ha application rate
Outline: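 Soybean sprayed 1 day after sowing (pre-emergence) or at about 12 days (post-emergence) with aqueous active ingredient plus 0.2% v/v X-77 adjuvant. Plants grown at 24/18 °C day/night, 16 h light, 65% humidity. Visual % phytotoxicity (100% = total damage) scored at 20 DAA pre-emergence, 15 DAA post-emergence.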

Lolium perenne (LOLPE) = assay: Test 1B glasshouse assay for herbicidal activity, pre-emergence; settings: 480 h, 250 g/ha, 20 DAA, read-out: percentage phytotoxicity LOLPE
Experimental: as §2, §3, §4
(§8) Cool climate (“cool season”) grassy monocotyledonous weeds: Alopecurus myosuroides (ALOMY), Avena fatua (AVEFA), Lolium perenne (LOLPE).

[15] = system: Alopecurus myosuroides (ALOMY); assay: as above; settings: 480 h, 250 g/ha, 20 DAA, read-out: percentage phytotoxicity ALOMY
Experimental: as §2, §3, §4, §8

Avena fatua (AVEFA) = assay: as above; settings: 480 h, 250 g/ha, 20 DAA, read-out: percentage phytotoxicity AVEFA
Experimental: as §2, §3, §4, §8

Row | Compound | pest or weed control at 30 g/ha [1] [%] | pest or weed control at 125 g/ha [1] [%] | pest or weed control at 30 g/ha (Setaria faberi (SETFA) [2]) [%] | pest or weed control at 125 g/ha (Setaria faberi (SETFA) [2]) [%] | plant injury at 250 g/ha [3] [%] | plant injury at 30 g/ha [4] [%] | plant injury at 125 g/ha [4] [%] | plant injury at 125 g/ha [5] [%] | plant injury at 125 g/ha [6] [%] | plant injury at 250 g/ha [7] [%] | plant injury at 250 g/ha [8] [%] | plant injury at 250 g/ha [9] [%] | pest or weed control at 250 g/ha [10] [%] | pest or weed control at 250 g/ha [11] [%] | pest or weed control at 250 g/ha (Setaria faberi (SETFA) [12]) [%] | pest or weed control at 250 g/ha [13] [%] | plant injury at 125 g/ha [14] [%] | pest or weed control at 250 g/ha (Lolium perenne (LOLPE)) [%] | pest or weed control at 250 g/ha [15] [%] | pest or weed control at 250 g/ha (Avena fatua (AVEFA)) [%] | other results
1 | CC#Cc1cc(C)c(C2=C(OC(=O)OC)CC(c3ccccn3)CC2=O)c(C)c1 (centres unmarked) [Compound A-14] | 80 | 100 | 80 | 90 | 20 | 60 | 70 | 80 | 40 | 60 | 40 | 30 | 100 | 100 | 100 | 20 | 70 | 100 | 80 | 70 | plant injury at 30 g/ha [5]: 60%; plant injury at 30 g/ha [6]: 30%; plant injury at 30 g/ha [14]: 40%
2 | CC#Cc1cc(Cl)c(C2C(=O)C3CCC(C3)C2=O)c(OC)c1 (centres unmarked) [Compound A-12] | 100 | 100 | 70 | 80 | 40 | 60 | 80 | 60 | 20 | 20 | 30 | 10 | 90 to 100 | 100 | 100 | 0 to 10 | 10 | 100 | 60 | 50 | plant injury at 30 g/ha [5]: 40%; plant injury at 30 g/ha [6]: 0%; pest or weed control at 62.5 g/ha ([10]; 62.5 g/ha): 80%; pest or weed control at 62.5 g/ha ([11]; 62.5 g/ha): 100%; pest or weed control at 62.5 g/ha (Setaria faberi (SETFA) [12]; 62.5 g/ha): 100%; pest or weed control at 62.5 g/ha ([13]; 62.5 g/ha): 0%; plant injury at 30 g/ha [14]: 0%
3 | CC#Cc1cc(C)c(C2C(=O)CC(c3ccccn3)CC2=O)c(C)c1 (centres unmarked) [Compound A-13] | – | 80 | – | 80 | 20 | – | 70 | 30 | 20 | 70 | 20 | 10 | 100 | 100 | 100 | 60 | 60 | 100 | 80 | 30 | pest or weed control at 30 g/ha ([10]; 30 g/ha): 70%; pest or weed control at 30 g/ha ([11]; 30 g/ha): 80%; pest or weed control at 30 g/ha (Setaria faberi (SETFA) [12]; 30 g/ha): 90%; pest or weed control at 30 g/ha ([13]; 30 g/ha): 30%
